The results in this text go back to ChEMBL document CHEMBL4020793 (Bioorg Med Chem Lett, 2017).

Bounds are passed on as bounds.

One may read the IC50 as the midpoint of a concentration-inhibition curve.

Common to all, as to type: functional, cell-based
One experiment relates to HCT-116. Description: Antiproliferative activity against human HCT116 cells assessed as cell viability after 72 hrs by MTS assay. The conditions noted are these: HCT-116, 72 h.
The subject of a further experiment is HCT-116/VM46. In words: Antiproliferative activity against vinblastine-resistant human HCT116/VM46 cells assessed as cell viability after 72 hrs by MTS assay. The conditions noted are these: HCT-116/VM46, 72 h. Background: Tetrazolium dyes change colour on reduction, which living cells bring about.
Another experiment has as its system L1210. In words: Antiproliferative activity against mouse L1210 cells assessed as cell viability after 72 hrs by MTS assay. The conditions noted are these: L1210, 72 h.

Turning to `CC[C@]12C=CCN3CC[C@@]4(c5cc([C@@]6(C(=O)OC)C[C@@H]7CN(CCc8c6[nH]c6ccccc86)C[C@](O)(CCC#N)C7)c(OC)cc5N(C)[C@H]4[C@@](O)(C(=O)OC)[C@@H]1OC(C)=O)[C@@H]32`, the IC50 in the experiment on HCT-116 worked out at 80 nM; in the experiment on HCT-116/VM46, 8000 nM; with L1210, 80 nM.
As to `CCC[C@]1(O)C[C@H]2CN(CCc3c([nH]c4ccccc34)[C@@](C(=O)OC)(c3cc4c(cc3OC)N(C)[C@H]3[C@@](O)(C(=O)OC)[C@H](OC(C)=O)[C@]5(CC)C=CCN6CC[C@]43[C@@H]65)C2)C1`, the results for the IC50 with HCT-116, in the experiment with HCT-116/VM46 and in the experiment on L1210 were 420 nM, more than 1000 nM and 300 nM, respectively.
As to `CC[C@]12C=CCN3CC[C@@]4(c5cc([C@@]6(C(=O)OC)C[C@@H]7CN(CCc8c6[nH]c6ccccc86)C[C@@]6(O)CCCC[C@H]76)c(OC)cc5N(C)[C@H]4[C@@](O)(C(=O)OC)[C@@H]1OC(C)=O)[C@@H]32`, the IC50 with HCT-116 was 6 nM; with HCT-116/VM46 it was 200 nM; with L1210, 6 nM.
With `CC[C@]12C=CCN3CC[C@@]4(c5cc([C@@]6(C(=O)OC)C[C@@H]7CN(CCc8c6[nH]c6ccccc86)C[C@](O)(CCF)C7)c(OC)cc5N(C)[C@H]4[C@@](O)(C(=O)OC)[C@@H]1OC(C)=O)[C@@H]32`, the values for the IC50 with HCT-116, in the experiment with HCT-116/VM46 and in the experiment on L1210 were 6.3 nM, 420 nM and 7.5 nM, respectively.
On the same counts, the results for `CC[C@]12C=CCN3CC[C@@]4(c5cc([C@@]6(C(=O)OC)C[C@@H]7CN(CCc8c6[nH]c6ccccc86)C[C@](O)(CCN=[N+]=[N-])C7)c(OC)cc5N(C)[C@H]4[C@@](O)(C(=O)OC)[C@@H]1OC(C)=O)[C@@H]32` are 70 nM, 3000 nM and 65 nM.
For the molecule `CC[C@]12C=CCN3CC[C@@]4(c5cc([C@@]6(C(=O)OC)C[C@@H]7CN(CCc8c6[nH]c6ccccc86)C[C@@]6(O)CCCC[C@@H]76)c(OC)cc5N(C)[C@H]4[C@@](O)(C(=O)OC)[C@@H]1OC(C)=O)[C@@H]32`, the IC50 in the experiment with HCT-116 was determined as 0.7 nM; with HCT-116/VM46 it was 60 nM; with L1210, 0.6 nM.
Regarding `CCCC[C@]1(O)C[C@H]2CN(CCc3c([nH]c4ccccc34)[C@@](C(=O)OC)(c3cc4c(cc3OC)N(C)[C@H]3[C@@](O)(C(=O)OC)[C@H](OC(C)=O)[C@]5(CC)C=CCN6CC[C@]43[C@@H]65)C2)C1`, the values for the IC50 with HCT-116, with HCT-116/VM46 and in the experiment on L1210 were 790 nM, more than 1000 nM and 480 nM, respectively.
For `CC[C@]12C=CCN3CC[C@@]4(c5cc([C@@]6(C(=O)OC)C[C@@H]7CN(CCc8c6[nH]c6ccccc86)C[C@](O)(CCO)C7)c(OC)cc5N(C)[C@H]4[C@@](O)(C(=O)OC)[C@@H]1OC(C)=O)[C@@H]32`, the IC50 in the experiment on HCT-116, in the experiment with HCT-116/VM46 and in the experiment with L1210 was more than 1000 nM each time.
